Test results taken from patent US9920042B2, “Compounds for use in the treatment of mycobacterial infections” (Universite de Droit et de la Sante de Lille 2, priority 2012, dated 2018).

Tests used:
[1] = test system: M. tuberculosis alone or macrophages infected by M. tuberculosis; test: Potentiation of ethionamide cell test (High Content Screening); assay type: cell-based; conditions: ligand concentration potentiating ten times the activity of ethionamide; ethionamide constant at 0.1 μg/mL (1/10th of its CMI99); read-out: EC50
[2] = target: EthR protein (interaction with the ethA gene promoter) (Mycobacterium tuberculosis, UniProt P9WMC1); test: Surface Plasmon Resonance test (SPR): inhibition of EthR binding to the ethA gene promoter; assay type: biochemical, M. tuberculosis
Chain of EthR protein (interaction with the ethA gene promoter) (P9WMC1 whole entry, looked up): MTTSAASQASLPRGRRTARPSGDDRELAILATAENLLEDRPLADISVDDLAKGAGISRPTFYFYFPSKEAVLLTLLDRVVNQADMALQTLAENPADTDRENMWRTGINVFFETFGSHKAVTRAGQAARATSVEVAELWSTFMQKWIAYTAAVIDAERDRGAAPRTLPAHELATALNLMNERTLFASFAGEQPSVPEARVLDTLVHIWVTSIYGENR
Text: Surface Plasmon Resonance test (SPR) (described in the article “Ethionamide Boosters Combining Bioisosteric Replacement and Structure-Based Drug Design to Solve Pharmacokinetic Issues in a series of potent 1,2,4-Oxadiazole EthR Inhibitors” published in 2012 in the Journal of Medicinal Chemistry)
After having measured the ligands' affinity for the protein, it is necessary to verify that this does indeed result in the inactivation of the transcriptional repressor, thus preventing it from binding to its operon. For this, a functional test based on the principle of surface plasmon resonance is used. Surface Plasmon Resonance (SPR) makes it possible to visualize in real time the phenomena of association or dissociation between a partner immobilized on a biosensor and, a second partner injected in a continuous flow onto this surface. In the present case, the SPR technique enables the interaction between the EthR protein (analyte injected in continuous flow) and the ethA gene promoter (partner immobilized on the surface) to be visualized. Two cells are used for the test: a measuring cell onto which the so-called relevant DNA is affixed, i.e. corresponding to the ethA gene promoter, and a control cell on which is a non-relevant (thus different) DNA strand of same length, enabling the non-specific protein/DNA interactions to be removed. In a first step, the EthR protein is injected alone, until saturation, which enables a signal SIEthR corresponding to the quantity of EthR protein that has come to bind to the DNA to be measured. In a second step, the experience is reiterated in the presence of a potential ligand at different concentrations. If the compound binds to the EthR, thus preventing it from coming to bind on the DNA, a diminution of the response of the dose-dependent signal (SIEthR+lig) is observed.
By using the equation hereafter, it is possible to calculate for each concentration a percentage for the inhibition of the ligand under examination:
By representing the variation of the inhibition percentage depending on the ligand concentration, a value for IC50 can be deduced.

[3] = Measurement of the solubility; assay type: physicochemical; conditions: aqueous buffer, kinetic from dmso stock; PBS at pH 7.4, 24 h at AT, LC-MS ratio PBS/MeOH; read-out: Solubilité
Description: Measurement of the Solubility
40 μL of a solution at 10 mM in DMSO of the sample are added at 1.96 mL MeOH or PBS at pH 7.4. The samples are then agitated during 24 h at AT, centrifuged during 5 min and then filtrated on filters of 0.45 μm size. 20 μL of each solution are then added to 180 μL MeOH and then analyzed by LC-MS. The solubility is determined as ratio of the surfaces of the mass signals PBS/MeOH.

EthR protein = EthR protein (Mycobacterium tuberculosis, UniProt P9WMC1); test: TSA test (Thermal Shift Assay), fluorescence with Sypro Orange; assay type: binding, M. tuberculosis; conditions: melting temperature shift of EthR with ligand vs protein alone
Chain of EthR protein (P9WMC1 whole entry, looked up): as above

Measurement of the log D = assay type: physicochemical; conditions: octanol/PBS (1/1); octanol/PBS at pH 7.4, triplicate
Description: 40 μL of a solution at 10 mM in the DMSO of the sample are added to 1.96 mL of a mixture of 1/1 octanol/PBS at pH 7.4. The solution is agitated during 2 h at AT. 20 μL of each phase are added to 180 μL MeOH and analyzed by LC-MS. Each compound is evaluated in triplicate. The log D is determined as being the logarithm of the ratio of the product concentrations in the octanol and PBS phases, determined par the mass signals.

SMILES	EC50 [1] [nM]	IC50 [2] [nM]	solubility at 24 h [3] [µM]	ΔTm (EthR protein) [°C]	logD at 2 h (Measurement of the log D)
Cc1nc(-c2ccc(C(=O)NCCC(F)(F)F)cc2)cs1 [Compound 43, 4-(2-methylthiazol-4-yl)-N-(3,3,3-trifluoropropyl)benzamide]	83	480 ± 60	46.9	11.4	2.82
Cc1nc(-c2ccc(S(=O)(=O)NCCC(F)(F)F)cc2)cs1 [Compound 24]	290	550 ± 20	41.4	8.5	3.12
O=C(NCCC(F)(F)F)c1ccc(-c2csc(-c3ccncc3)n2)cc1 [Compound 57, 4-(2-(pyridin-4-yl)thiazol-4-yl)-N-(3,3,3-trifluoropropyl)benzamide]	< 10		29	12.6	3.07
CC(C)CCCc1nc(-c2ccc(S(=O)(=O)NCCC(F)(F)F)cc2)cs1 [Compound 38, 4-(2-(4-methylpentyl)thiazol-4-yl)-N-(3,3,3-trifluoropropyl)benzene sulfonamide]	390		< 1	12.4	> 4
CCc1cc(-c2nc(-c3ccc(C(=O)NCCC(F)(F)F)cc3)cs2)ccn1 [Compound 58, 4-(2-(2-ethylpyridin-4-yl)thiazol-4-yl)-N-(3,3,3-trifluoropropyl)benzamide]	< 10		3.3	13.3	3.95
CC(C)Cc1nc(-c2ccc(C(=O)NCCC(F)(F)F)cc2)cs1 [Compound 49, 4-(2-isobutylthiazol-4-yl)-N-(3,3,3-trifluoropropyl)benzamide]	< 40	440 ± 10	4.4	12.6	3.91
Cc1nc(-c2ccc(S(=O)(=O)NCCC(C)C)cc2)cs1 [Compound 6, 4-(2-methylthiazol-4-yl)-N-isopentyl benzene sulfonamide]	5700	4900 ± 100	20	6.1	3.55
CC(C)OC(=O)Cc1nc(-c2ccc(S(=O)(=O)NCCC(F)(F)F)cc2)cs1 [Compound 35, 2-(4-(4-(N-(3,3,3-trifluoropropyl)sulfamoyl)phenyl)thiazol-2-yl) isopropyl acetate]	300		2.8	11.6	3.76
